Experimental data: patent US5719152A, “Tricyclic quinoxalinedione derivatives” (Sumitomo Pharmaceuticals Co., Ltd., priority 1993, dated 1998)

What was measured:
NMDA-induced seizure = NMDA-induced seizure model; format: in vivo; details: Mus musculus, ip, 0.5 h; mice; test compound intraperitoneal 30 min before NMDA (5 nmol) i.c.v.; ten mice; read-out: ED50, inhibition of NMDA-induced tonic seizures
Method: The compounds of the present invention attenuated strongly NMDA-induced seizure under systemic administrations in the following in vivo model.
NMDA-induced seizure model
Thirty min later following intraperitoneal administration of the test compound (0.3~30 mg/kg) into each of ten mice tested, NMDA (5 nmol) was administered intracerebroventricularly (i.c.v.). […] The activity of the test compound may be shown by the ED50 value.

[1] = system: strychnine-insensitive glycine modulatory site of NMDA (N-methyl D-aspartate) receptors; details: 0.1 mM; rat brain synaptic membrane preparation
Method: The activities of the compounds were measured by [^3 H] DCKA and [^3 H] glycine binding inhibition studies as illustrated below.
[^3 H] glycine binding studies
A crude rat brain synaptic membrane preparation was washed three times by centrifugation at 50,000×g for 30 min with 50 mM tris acetate (pH 7.4). The pellets obtained were suspended in 0.23M sucrose solution and stored at -80° C. For binding studies, the frozen suspension was thawed, treated with 0.08% triton X-100 at 2° C. for 10 min, and washed twice by the centrifugation as mentioned above. The synaptic membrane thus prepared (ca. 150~200 μg of protein) was incubated with 10 nM [^3 H] glycine (1.11 TBq/mmol) and the test compound (10 ng/mL~0.1 ng/mL) at 2° C. for 10 min in 50 mM tris acetate (pH 7.4). The incubation was terminated by suction filtration using Whatman GF/B glass filter. The radioactivities bound to the membrane on the filter was measured by scintillation counting. Non-specific binding was calculated by the radioactivities measured under the incubations in the presence of 0.1 mM D-serine.

| Structure (SMILES) | ED50 (NMDA-induced seizure) | inhibition of [3H] glycine binding [1] |
| --- | --- | --- |
| Cl.NCc1ccc(NC(=O)C[C@@H]2CCc3cc(Cl)cc4[nH]c(=O)c(=O)n2c34)c(OCC(=O)O)c1 [Example 31, (S)-9-Chloro-5-[p-aminomethyl-o-(carboxymethoxy)phenylcarbamoylmethyl]-6,7-dihydro-1H, 5H-pyrido[1,2,3-de]quinoxaline-2,3-dione hydrochloride] | 1 mg/kg |  |
| O=C1C[C@@H]2OCC=C3CN4CC[C@]56c7ccccc7N1[C@H]5[C@H]2[C@H]3C[C@H]46 [strychnine] |  | not inhibited |
| Cl.NCc1ccc(NC(=O)C[C@@H]2CCc3cc(Cl)cc4[nH]c(=O)c(=O)n2c34)c(CC(=O)O)c1 [Example 11, (S)-9-Chloro-5-[p-aminomethyl-o-(carboxymethyl)phenylcarbamoylmethyl]-6,7-dihydro-1H, 5H-pyrido[1,2,3-de]quinoxaline-2,3-dione hydrochloride] | 3.1 mg/kg |  |
| Cl.NCc1ccc(NC(=O)C[C@@H]2CCc3cc(Br)cc4[nH]c(=O)c(=O)n2c34)c(OCC(=O)O)c1 [Example 35, (S)-9-Bromo-5-[p-aminomethyl-o-(carboxymethoxy)phenylcarbamoylmethyl]6,7-dihydro-1H, 5H-pyrido[1,2,3-de]quinoxaline-2,3-dione hydrochloride] | 2.1 mg/kg |  |
